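How tested: cells in 96-well plates exposed to compound for 48 hours at five concentrations. The concentration for 50% growth inhibition is given as GI50. TGI marks complete inhibition of growth.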
Legend:
Experiment in all cases: NCI tumour cell line growth inhibition, 48 h
HCT-15 colon = tested on: HCT-15 colon
OVCAR-5 ovarian = tested on: OVCAR-5 ovarian
MALME-3M melanoma = tested on: MALME-3M melanoma
SK-MEL-5 melanoma = tested on: SK-MEL-5 melanoma
SNB-19 CNS = tested on: SNB-19 CNS
SK-MEL-2 melanoma = tested on: SK-MEL-2 melanoma
CAKI-1 renal = tested on: CAKI-1 renal
HL-60(TB) leukemia = tested on: HL-60(TB) leukemia
EKVX NSCLC = tested on: EKVX NSCLC
786-0 renal = tested on: 786-0 renal
HOP-92 NSCLC = tested on: HOP-92 NSCLC
HOP-62 NSCLC = tested on: HOP-62 NSCLC
SF-268 CNS = tested on: SF-268 CNS
HCT-116 colon = tested on: HCT-116 colon
NCI-H522 lung = tested on: NCI-H522 lung
KM12 colon = tested on: KM12 colon
ACHN renal = tested on: ACHN renal
COLO 205 colon = tested on: COLO 205 colon
BT-549 breast = tested on: BT-549 breast
HCC-2998 colon = tested on: HCC-2998 colon
DU-145 prostate = tested on: DU-145 prostate
U251 CNS = tested on: U251 CNS
SK-MEL-28 melanoma = tested on: SK-MEL-28 melanoma
HT29 colon = tested on: HT29 colon
LOX IMVI melanoma = tested on: LOX IMVI melanoma
K-562 leukemia = tested on: K-562 leukemia
MCF7 breast = tested on: MCF7 breast
IGROV1 ovarian = tested on: IGROV1 ovarian
T-47D breast = tested on: T-47D breast
SNB-75 CNS = tested on: SNB-75 CNS
M14 melanoma = tested on: M14 melanoma
A498 renal = tested on: A498 renal
TK-10 renal = tested on: TK-10 renal
OVCAR-3 ovarian = tested on: OVCAR-3 ovarian
SR leukemia = tested on: SR leukemia
UO-31 renal = tested on: UO-31 renal
HS 578T breast = tested on: HS 578T breast
NCI/ADR-RES ovarian = tested on: NCI/ADR-RES ovarian
A549 NSCLC = tested on: A549 NSCLC
SF-539 CNS = tested on: SF-539 CNS
NCI-H23 lung = tested on: NCI-H23 lung
OVCAR-4 ovarian = tested on: OVCAR-4 ovarian
MOLT-4 leukemia = tested on: MOLT-4 leukemia
SW-620 colon = tested on: SW-620 colon
SK-OV-3 ovarian = tested on: SK-OV-3 ovarian
UACC-62 melanoma = tested on: UACC-62 melanoma
OVCAR-8 ovarian = tested on: OVCAR-8 ovarian
SN12C renal = tested on: SN12C renal
UACC-257 melanoma = tested on: UACC-257 melanoma
CCRF-CEM leukemia = tested on: CCRF-CEM leukemia
PC-3 prostate = tested on: PC-3 prostate
NCI-H460 lung = tested on: NCI-H460 lung
RPMI-8226 leukemia = tested on: RPMI-8226 leukemia
RXF 393 renal = tested on: RXF 393 renal
MDA-MB-231 breast = tested on: MDA-MB-231 breast
SF-295 CNS = tested on: SF-295 CNS

COc1ccc2c(c1OC)C(=O)OC2C1c2c(c(N)c3c(c2OC)OCO3)CCN1C (configuration not stated)
GI50 (HCT-15 colon): 2.64 µM
TGI (HCT-15 colon): 8.38 µM
GI50 (OVCAR-5 ovarian): 9.35 µM
TGI (OVCAR-5 ovarian): 38.8 µM
GI50 (MALME-3M melanoma): 6.51 µM
TGI (MALME-3M melanoma): > 100 µM
GI50 (SK-MEL-5 melanoma): 3.03 µM
TGI (SK-MEL-5 melanoma): 13.2 µM
GI50 (SNB-19 CNS): 2.7 µM
TGI (SNB-19 CNS): 9.25 µM
GI50 (SK-MEL-2 melanoma): 3.17 µM
TGI (SK-MEL-2 melanoma): 28.2 µM
GI50 (CAKI-1 renal): 3.81 µM
TGI (CAKI-1 renal): > 100 µM
GI50 (HL-60(TB) leukemia): 4.02 µM
TGI (HL-60(TB) leukemia): 26.4 µM
GI50 (EKVX NSCLC): 5.18 µM
TGI (EKVX NSCLC): > 100 µM
GI50 (786-0 renal): 7.51 µM
TGI (786-0 renal): > 100 µM
GI50 (HOP-92 NSCLC): 12.2 µM
TGI (HOP-92 NSCLC): 59.3 µM
GI50 (HOP-62 NSCLC): 5.15 µM
TGI (HOP-62 NSCLC): > 100 µM
GI50 (SF-268 CNS): 4.57 µM
TGI (SF-268 CNS): 23 µM
GI50 (HCT-116 colon): 3.19 µM
TGI (HCT-116 colon): 14.6 µM
GI50 (NCI-H522 lung): 2.07 µM
TGI (NCI-H522 lung): 5.3 µM
GI50 (KM12 colon): 3.33 µM
TGI (KM12 colon): 62.7 µM
GI50 (ACHN renal): 6.75 µM
TGI (ACHN renal): > 100 µM
GI50 (COLO 205 colon): 5.6 µM
TGI (COLO 205 colon): 26 µM
GI50 (BT-549 breast): 2.32 µM
TGI (BT-549 breast): 9.12 µM
GI50 (HCC-2998 colon): 6.86 µM
TGI (HCC-2998 colon): 28.2 µM
GI50 (DU-145 prostate): 2.8 µM
TGI (DU-145 prostate): 12 µM
GI50 (U251 CNS): 3.94 µM
TGI (U251 CNS): > 100 µM
GI50 (SK-MEL-28 melanoma): 8.71 µM
TGI (SK-MEL-28 melanoma): > 100 µM
GI50 (HT29 colon): 3.96 µM
TGI (HT29 colon): 52.8 µM
GI50 (LOX IMVI melanoma): 4.8 µM
TGI (LOX IMVI melanoma): 24 µM
GI50 (K-562 leukemia): 4.43 µM
TGI (K-562 leukemia): > 100 µM
GI50 (MCF7 breast): 3.11 µM
TGI (MCF7 breast): 16.1 µM
GI50 (IGROV1 ovarian): 1.68 µM
TGI (IGROV1 ovarian): 6.68 µM
GI50 (T-47D breast): 2.63 µM
TGI (T-47D breast): 19.6 µM
GI50 (SNB-75 CNS): 2.83 µM
TGI (SNB-75 CNS): 11.9 µM
GI50 (M14 melanoma): 1.86 µM
TGI (M14 melanoma): 4.41 µM
GI50 (A498 renal): 2.44 µM
TGI (A498 renal): 13.3 µM
GI50 (TK-10 renal): 6.57 µM
TGI (TK-10 renal): > 100 µM
GI50 (OVCAR-3 ovarian): 4.01 µM
TGI (OVCAR-3 ovarian): 34.6 µM
GI50 (SR leukemia): 3.18 µM
TGI (SR leukemia): 29.2 µM
GI50 (UO-31 renal): 5.28 µM
TGI (UO-31 renal): 92.8 µM
GI50 (HS 578T breast): 2.75 µM
TGI (HS 578T breast): 9.39 µM
GI50 (NCI/ADR-RES ovarian): 1.58 µM
TGI (NCI/ADR-RES ovarian): 3.2 µM
GI50 (A549 NSCLC): 6.23 µM
TGI (A549 NSCLC): > 100 µM
GI50 (SF-539 CNS): 2.11 µM
TGI (SF-539 CNS): 5.53 µM
GI50 (NCI-H23 lung): 4.74 µM
TGI (NCI-H23 lung): > 100 µM
GI50 (OVCAR-4 ovarian): 5.33 µM
TGI (OVCAR-4 ovarian): > 100 µM
GI50 (MOLT-4 leukemia): 4.96 µM
TGI (MOLT-4 leukemia): > 100 µM
GI50 (SW-620 colon): 3.26 µM
TGI (SW-620 colon): > 100 µM
GI50 (SK-OV-3 ovarian): 3.23 µM
TGI (SK-OV-3 ovarian): 23.4 µM
GI50 (UACC-62 melanoma): 4.04 µM
TGI (UACC-62 melanoma): > 100 µM
GI50 (OVCAR-8 ovarian): 3.94 µM
TGI (OVCAR-8 ovarian): 35.2 µM
GI50 (SN12C renal): 4.46 µM
TGI (SN12C renal): 21.9 µM
GI50 (UACC-257 melanoma): 27.3 µM
TGI (UACC-257 melanoma): > 100 µM
GI50 (CCRF-CEM leukemia): 2.63 µM
TGI (CCRF-CEM leukemia): 8.44 µM
GI50 (PC-3 prostate): 3.42 µM
TGI (PC-3 prostate): > 100 µM
GI50 (NCI-H460 lung): 3.37 µM
TGI (NCI-H460 lung): 11.6 µM
GI50 (RPMI-8226 leukemia): 3.04 µM
TGI (RPMI-8226 leukemia): 12.2 µM
GI50 (RXF 393 renal): 4.25 µM
TGI (RXF 393 renal): > 100 µM
GI50 (MDA-MB-231 breast): 3.15 µM
TGI (MDA-MB-231 breast): 20.7 µM
GI50 (SF-295 CNS): 5.59 µM
TGI (SF-295 CNS): 61.8 µM

Reference: PubChem BioAssay (NCI)
